Where two headings read alike, the source gives them in different places.
Legend:
[1] = test system: Mycosphaerella graminicola; anamorph: Septoria tritici; assay: Fungicidal activity: leaf blotch of wheat (SEPTTR), wheat seedlings; format: in vivo; conditions: Zymoseptoria tritici, 100 ppm, wheat
In short: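 Percent control derives from disease severity on treated versus untreated first leaves, rated 0–100% when symptoms were fully expressed on untreated plants. Yuma seedlings were inoculated with S. tritici spores either before or after spraying to run-off. The spray was acetone solution diluted 1:9 in water with 110 ppm Triton X-100. Infection took place in 100% RH dew chambers, then a 20 °C greenhouse.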

[2] = test system: Puccinia triticina; synonym: Puccinia recondita f. sp. tritici; assay: Fungicidal activity: wheat brown rust (PUCCRT), wheat seedlings; format: in vivo; conditions: 100 ppm, wheat
In short: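 Wheat (Yuma) seedlings at first-leaf stage, inoculated with Puccinia triticina spores before or after treatment, held overnight in dark dew room at 22° C, 100% RH, then greenhouse at 24° C. Acetone solutions diluted with nine volumes water containing 110 ppm Triton X-100, sprayed to run-off. Percent disease control derived from severity (0–100%) relative to untreated plants.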

Venturia inaequalis = assay: Fungicidal activity: apple scab (VENTIN); format: in vivo; conditions: 24 h, 1 Day Protectant, read-out: Disease Control VENTIN 1 DP
Description: Technical grades of materials were dissolved in acetone, which were then mixed with nine volumes of water containing 110 ppm Triton X-100. The fungicide solutions were applied onto wheat seedlings using an automated booth sprayer to run-off. All sprayed plants were allowed to air dry prior to further handling. Wheat plants (variety Yuma) were grown from seed in a greenhouse in 50% mineral soil/50% soil-less Metro mix until the first leaf was fully emerged, with 7-10 seedlings per pot. These plants were inoculated with an aqueous spore suspension of Septoria tritici either prior to or after fungicide treatments. After inoculation the plants were kept in 100% relative humidity (one day in a dark dew chamber followed by two to three days in a lighted dew chamber at 20° C.) to permit spores to germinate and infect the leaf. The plants were then transferred to a greenhouse set at 20° C. for disease to develop. When disease symptoms were fully expressed on the 1st leaves of untreated plants, infection levels were assessed on a scale of 0 to 100 percent disease severity. Percent disease control was calculated using the ratio of disease severity on treated plants relative to untreated plants. Evaluation of Fungicidal Activity: Apple Scab (Venturia inaequalis; Bayer Code […]) Apple seedlings (variety McIntosh) were grown in soil-less Metro mix, with one plant per pot. Seedlings with two expanding young leaves at the top (older leaves at bottom of the plants were trimmed) were used in the test. Plants were inoculated with a spore suspension of Venturia inaequalis 24 hr after fungicide treatment and kept in a 22° C. dew chamber with 100% RH for 48 hr, and then moved to a greenhouse set at 20° C. for disease to develop. Fungicide formulation, application and disease assessment on the sprayed leaves followed the procedures as described in the Example A.

Uncinula necator = assay: Fungicidal activity: grape powdery mildew (UNCINE); format: in vivo; conditions: Erysiphe necator, 24 h, 1 Day Protectant, read-out: Disease Control UNCINE 1 DP
Description: Technical grades of materials were dissolved in acetone, which were then mixed with nine volumes of water containing 110 ppm Triton X-100. The fungicide solutions were applied onto wheat seedlings using an automated booth sprayer to run-off. All sprayed plants were allowed to air dry prior to further handling. Wheat plants (variety Yuma) were grown from seed in a greenhouse in 50% mineral soil/50% soil-less Metro mix until the first leaf was fully emerged, with 7-10 seedlings per pot. These plants were inoculated with an aqueous spore suspension of Septoria tritici either prior to or after fungicide treatments. After inoculation the plants were kept in 100% relative humidity (one day in a dark dew chamber followed by two to three days in a lighted dew chamber at 20° C.) to permit spores to germinate and infect the leaf. The plants were then transferred to a greenhouse set at 20° C. for disease to develop. When disease symptoms were fully expressed on the 1st leaves of untreated plants, infection levels were assessed on a scale of 0 to 100 percent disease severity. Percent disease control was calculated using the ratio of disease severity on treated plants relative to untreated plants. Evaluation of Fungicidal Activity: Grape Powdery Mildew (Uncinula necator; Bayer Code […]) Grape seedlings (variety Carignane) were grown in soil-less Metro mix, with one plant per pot, and used in the test when approximately one month old. Plants were inoculated 24 hr after fungicide treatment by shaking spores from infected leaves over test plants. Plants were maintained in a greenhouse set at 20° C. until disease was fully developed. Fungicide formulation, application and disease assessment on the sprayed leaves followed the procedures as described in the Example A.

[3] = test system: Puccinia triticina; synonym: Puccinia recondita f. sp. tritici; assay: Fungicide mobility (dropline mobility test): wheat brown rust (PUCCRT); format: in vivo; conditions: 1 ug/leaf
In short: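 A 2 μl drop of formulated compound (EC blank, 110 ppm Triton X-100 water) was applied to a line 5 cm from the tip of primary leaves of "Yuma" wheat seedlings, 6 replicates. Inoculation with PUCCRT was done 1 day after or 3 days before application. Once disease was fully expressed on controls, the acropetal disease-free zone was measured as percent of line-to-tip distance.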

[4] = test system: Magnaporthe grisea; anamorph: Pyricularia oryzae; assay: whole plant or invertebrate; format: in vivo; conditions: 24 h, read-out: Disease Control PYRIOR 1 DP
[5] = 24 h, 1 Day Protectant, read-out: Disease Control SEPTTR 1DP
[6] = 72 h, 3 Day Curative, read-out: Disease Control SEPTTR 3DC
[7] = 24 h, 1 Day Protectant, read-out: Disease Control PUCCRT 1DP
[8] = 72 h, 3 Day Curative, read-out: Disease Control PUCCRT 3DC
[9] = 24 h, 1 Day Protectant Mobility, read-out: Dropline Mobility Test PUCCRT 1DPM
[10] = 72 h, 3 Day Curative Mobility, read-out: Dropline Mobility Test PUCCRT 3DCM

CCCCO[C@H]1COC[C@H](NC(=O)c2nccc(OC)c2OCOC(C)=O)C(=O)O[C@@H](C)[C@@H]1OCCC [Compound 45]
pest or weed control at 100 ppm [1, 5]: 80 to 100% | pest or weed control at 100 ppm [1, 6]: 80 to 100% | pest or weed control at 100 ppm [2, 7]: 80 to 100% | pest or weed control at 100 ppm [2, 8]: 80 to 100% | pest or weed control at 100 ppm (Venturia inaequalis): 0 to 80% | pest or weed control at 100 ppm (Uncinula necator): 80 to 100%

CCCCO[C@H]1COC[C@H](NC(=O)c2nccc(OC)c2OCOC(C)=O)C(=O)O[C@@H](C)[C@@H]1OCc1ccccc1 [Compound 35]
pest or weed control at 100 ppm [1, 5]: 80 to 100% | pest or weed control at 100 ppm [1, 6]: 80 to 100% | pest or weed control at 100 ppm [2, 7]: 80 to 100% | pest or weed control at 100 ppm [2, 8]: 80 to 100% | pest or weed control at 100 ppm (Venturia inaequalis): 0 to 80% | pest or weed control at 100 ppm (Uncinula necator): 0 to 80%

COc1ccnc(C(=O)N[C@H]2COC[C@H](OCc3ccccc3)[C@@H](OCc3ccccc3)COC2=O)c1OCOC(=O)C(C)C [Compound 6]
pest or weed control at 100 ppm [1, 5]: 0 to 80% | pest or weed control at 100 ppm [1, 6]: 0 to 80% | pest or weed control at 100 ppm [2, 7]: 80 to 100% | pest or weed control at 100 ppm (Venturia inaequalis): 0 to 80% | pest or weed control at 100 ppm (Uncinula necator): 0 to 80%

COc1ccnc(C(=O)N[C@H]2COC[C@H](O)[C@@H](OCC(C)C)[C@H](C)OC2=O)c1O [Compound 72, 3-hydroxy-N-((3S,7S,8R,9S)-7-hydroxy-8-isobutoxy-9-methyl-2-oxo-1,5-dioxonan-3-yl)-4-methoxypicolinamide]
pest or weed control at 100 ppm [1, 5]: 0 to 80% | pest or weed control at 100 ppm [1, 6]: 0 to 80% | pest or weed control at 100 ppm [2, 7]: 0 to 80% | pest or weed control at 100 ppm [2, 8]: 0 to 80% | pest or weed control at 1 µg/leaf [3, 9]: 0 to 80% | pest or weed control at 1 µg/leaf [3, 10]: 0 to 80% | melting point: 121 to 124 °C

COc1ccnc(C(=O)N[C@H]2COC[C@H](OCC(C)C)[C@@H](OCC(C)C)[C@H](C)OC2=O)c1O [Compound 1, N-((3S,7S,8S,9S)-7,8-diisobutoxy-9-methyl-2-oxo-1,5-dioxonan-3-yl)-3-hydroxy-4-methoxypicolinamide]
pest or weed control at 100 ppm [1, 5]: 80 to 100% | pest or weed control at 100 ppm [1, 6]: 80 to 100% | pest or weed control at 100 ppm [2, 7]: 80 to 100% | pest or weed control at 100 ppm [2, 8]: 80 to 100% | pest or weed control at 1 µg/leaf [3, 9]: 80 to 100% | pest or weed control at 1 µg/leaf [3, 10]: 80 to 100% | melting point: 111 to 113 °C

CCCCO[C@H]1[C@H](C)OC(=O)[C@@H](NC(=O)c2nccc(OC)c2OCOC(C)=O)COC[C@@H]1OCc1ccccc1 [Compound 34]
pest or weed control at 100 ppm [1, 5]: 80 to 100% | pest or weed control at 100 ppm [1, 6]: 80 to 100% | pest or weed control at 100 ppm [2, 7]: 80 to 100% | pest or weed control at 100 ppm [2, 8]: 80 to 100% | pest or weed control at 100 ppm (Venturia inaequalis): 80 to 100% | pest or weed control at 100 ppm (Uncinula necator): 80 to 100% | pest or weed control at 1 µg/leaf [3, 9]: 0 to 80% | pest or weed control at 1 µg/leaf [3, 10]: 80 to 100%

CCCCO[C@H]1COC[C@H](NC(=O)c2nccc(OC)c2OCOC(C)=O)C(=O)O[C@@H](C)[C@@H]1OC(=O)C(C)C [Compound 47]
pest or weed control at 100 ppm [1, 5]: 80 to 100% | pest or weed control at 100 ppm [1, 6]: 80 to 100% | pest or weed control at 100 ppm [2, 7]: 80 to 100% | pest or weed control at 100 ppm [2, 8]: 80 to 100% | pest or weed control at 100 ppm (Venturia inaequalis): 80 to 100% | pest or weed control at 100 ppm (Uncinula necator): 0 to 80% | pest or weed control at 100 ppm [4]: 80 to 100%

COc1ccnc(C(=O)N[C@H]2COC[C@H](OCc3ccccc3)[C@@H](OCc3ccccc3)[C@H](C)OC2=O)c1O [Compound 11, N-((3S,7S,8S,9S)-7,8-bis(benzyloxy)-9-methyl-2-oxo-1,5-dioxonan-3-yl)-3-hydroxy-4-methoxypicolinamide]
pest or weed control at 100 ppm [1, 5]: 80 to 100% | pest or weed control at 100 ppm [1, 6]: 0 to 80% | pest or weed control at 100 ppm [2, 7]: 80 to 100% | pest or weed control at 100 ppm [2, 8]: 80 to 100% | pest or weed control at 1 µg/leaf [3, 9]: 0 to 80% | pest or weed control at 1 µg/leaf [3, 10]: 0 to 80% | melting point: 144 to 146 °C
